Drawing on PubChem BioAssay (NCI), this text covers TGI and GI50 for 9 compounds.

The structures appear in SMILES notation.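 Protocol summary: plate cells (96-well), add compound at 5 concentrations, incubate 48 h, interpolate endpoints linearly. Here, GI50 denotes the concentration required for 50% inhibition of growth. TGI is the concentration that stops growth completely.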

Test systems include U251 CNS; COLO 205 colon; CAKI-1 renal; NCI/ADR-RES ovarian; CCRF-CEM leukemia; 786-0 renal; RXF 393 renal; DU-145 prostate; NCI-H460 lung; SF-295 CNS.
Common to all, as to test: NCI anticancer screen, dose series, 48 h

Take `COc1ccc(C2C=C(c3ccc4c(c3)OCO4)Oc3c2c(=O)oc2ccccc32)cc1OC` (stereo not given): the TGI in the assay on U251 CNS, in the assay on COLO 205 colon, in the assay on CAKI-1 renal, in the assay with NCI/ADR-RES ovarian, in the assay on CCRF-CEM leukemia and in the assay on 786-0 renal was > 100 µM throughout. The TGI with RXF 393 renal was > 45.5 µM; in the assay with DU-145 prostate, > 100 µM; with NCI-H460 lung, > 100 µM; in the assay with SF-295 CNS it was > 100 µM.

For the compound `COc1cc2c(cc1Nc1nc(Nc3cccc(F)c3C(N)=O)c3cc[nH]c3n1)N(C(=O)CN1CCN(C(C)C)CC1)CC2`, the GI50 in the assay on U251 CNS was 3.68 µM; in the assay on COLO 205 colon, 0.666 µM; in the assay on CAKI-1 renal, 4.94 µM; in the assay with NCI/ADR-RES ovarian it was 5.42 µM; in the assay on CCRF-CEM leukemia, 5.35 µM; in the assay on 786-0 renal it was 3.98 µM. For the same compound, the GI50 with RXF 393 renal is 2.3 µM; in the assay with DU-145 prostate, 3.77 µM; with NCI-H460 lung it was 3.36 µM; in the assay with SF-295 CNS it was 4.32 µM. Also, the TGI with U251 CNS is 7.09 µM; in the assay with COLO 205 colon, 3.65 µM; in the assay with CAKI-1 renal it was 11.9 µM; in the assay on NCI/ADR-RES ovarian, 13.5 µM; in the assay on CCRF-CEM leukemia it was 14.2 µM; in the assay on 786-0 renal, 7.53 µM. Also, the TGI with RXF 393 renal came to 5.77 µM; in the assay on DU-145 prostate, 7.28 µM; with NCI-H460 lung, 7 µM; in the assay with SF-295 CNS, 9.26 µM.

On to `O=c1ssc(Cl)c1Cl`, for which the TGI with U251 CNS is > 10 µM; with COLO 205 colon, 4.32 µM; in the assay with CAKI-1 renal it was > 10 µM; in the assay on NCI/ADR-RES ovarian, > 10 µM; with CCRF-CEM leukemia it was 5.25 µM; in the assay with 786-0 renal it was > 7.05 µM. For the same compound, the TGI in the assay with RXF 393 renal, in the assay with DU-145 prostate, in the assay with NCI-H460 lung and in the assay on SF-295 CNS was > 10 µM throughout.

`CC(=O)Nc1ccc(COC(O)CN2CCCCC2)cc1[N+](=O)[O-]` (stereo not given): the TGI in the assay with U251 CNS, in the assay on COLO 205 colon, in the assay on CAKI-1 renal, with NCI/ADR-RES ovarian, in the assay with CCRF-CEM leukemia and with 786-0 renal was > 100 µM each time. In addition, the TGI in the assay with RXF 393 renal, in the assay with DU-145 prostate, with NCI-H460 lung and with SF-295 CNS was > 100 µM in each case.

Take `Cc1cc(C(C)(C)C)cc(CNC2CCCCC2)c1O`: the TGI was 29.9 µM in the assay with U251 CNS; 31.5 µM in the assay with COLO 205 colon; 35.7 µM with CAKI-1 renal; 31.2 µM in the assay on NCI/ADR-RES ovarian; 91 µM in the assay with CCRF-CEM leukemia; 30 µM with 786-0 renal. The TGI turned out to be 12.6 µM in the assay on RXF 393 renal, 37.6 µM with DU-145 prostate, 28.4 µM in the assay on NCI-H460 lung and 31.7 µM with SF-295 CNS.

On to `CC(=O)N1N=C2/C(=C/c3ccc(Cl)cc3)CC(C)CC2C1c1ccc(Cl)cc1` (stereo not given), for which the GI50 with U251 CNS is 25.1 µM; with COLO 205 colon, 11.8 µM; in the assay with CAKI-1 renal, 44.3 µM; with NCI/ADR-RES ovarian, 21.7 µM; with CCRF-CEM leukemia, 19.7 µM; in the assay on 786-0 renal it was 18.2 µM. Moreover, the GI50 in the assay on RXF 393 renal was 15.3 µM; in the assay on DU-145 prostate it was 30.5 µM; in the assay with NCI-H460 lung it was 18.5 µM; in the assay with SF-295 CNS it was 28.8 µM. The TGI is 86.8 µM in the assay on U251 CNS; 24.5 µM with COLO 205 colon; > 100 µM in the assay on CAKI-1 renal; > 100 µM in the assay on NCI/ADR-RES ovarian; 62.6 µM with CCRF-CEM leukemia; 39.1 µM in the assay with 786-0 renal. Moreover, the TGI is 33.9 µM with RXF 393 renal, > 100 µM with DU-145 prostate, 41.8 µM in the assay on NCI-H460 lung and > 100 µM in the assay with SF-295 CNS.

As to `CCN(CC)C1CCC(Nc2c(C(C)=O)cnc3ccc(-c4ccc(O)c(Cl)c4)cc23)CC1` (stereo not given), the GI50 in the assay on U251 CNS was 1.16 µM; in the assay with COLO 205 colon it was 10.7 µM; in the assay with CAKI-1 renal it was 0.376 µM; with NCI/ADR-RES ovarian it was 0.821 µM; with CCRF-CEM leukemia it was 0.385 µM; in the assay with 786-0 renal, 1.64 µM. In addition, the GI50 was 0.615 µM with RXF 393 renal, 0.875 µM in the assay with DU-145 prostate, 0.311 µM with NCI-H460 lung and 4.46 µM in the assay with SF-295 CNS. For the same compound, the TGI in the assay on U251 CNS is 17 µM; with COLO 205 colon it was 40.7 µM; in the assay on CAKI-1 renal, 10.8 µM; in the assay on NCI/ADR-RES ovarian, 5.55 µM; with CCRF-CEM leukemia, 6.26 µM; in the assay with 786-0 renal it was 44.8 µM. Moreover, the TGI with RXF 393 renal is 2.28 µM; in the assay with DU-145 prostate it was > 35.5 µM; in the assay on NCI-H460 lung, 1.87 µM; in the assay with SF-295 CNS, 24.9 µM.

Take `CC(=O)OC1CC2C3CCC4C[C@@H](NC(=O)C=C(C)C)CC[C@]4(C)C3CC[C@]2(C)[C@H]1C(C)N(C)C` (stereo not given in full): the GI50 with U251 CNS was 1.75 µM; with COLO 205 colon it was 1.51 µM; with CAKI-1 renal, 3.71 µM; in the assay on NCI/ADR-RES ovarian, 4.13 µM; in the assay on CCRF-CEM leukemia it was 1.81 µM; with 786-0 renal, 1.65 µM. The GI50 is 1.59 µM in the assay with RXF 393 renal, 3.41 µM with DU-145 prostate, 0.885 µM with NCI-H460 lung and 2.11 µM with SF-295 CNS. Moreover, the TGI in the assay on U251 CNS turned out to be 5.79 µM; with COLO 205 colon, 3.14 µM; with CAKI-1 renal it was 13.2 µM; in the assay with NCI/ADR-RES ovarian, 16.5 µM; in the assay on CCRF-CEM leukemia it was 8.15 µM; with 786-0 renal, 3.17 µM. The TGI amounted to 3.66 µM in the assay on RXF 393 renal, 14.1 µM in the assay with DU-145 prostate, 2.65 µM in the assay with NCI-H460 lung and 4.75 µM with SF-295 CNS.

For `NC(N)=N/N=C/c1ccc(-c2ccc(-c3cc(Cl)cc(Cl)c3)s2)cc1`, the GI50 in the assay on U251 CNS is 1.89 µM; with COLO 205 colon it was 1.49 µM; in the assay with CAKI-1 renal it was 1.58 µM; in the assay with NCI/ADR-RES ovarian, 2 µM; in the assay on CCRF-CEM leukemia, 1.65 µM; in the assay on 786-0 renal, 1.74 µM. Further, the GI50 is 1.67 µM in the assay with RXF 393 renal, 1.74 µM in the assay with DU-145 prostate, 1.7 µM in the assay on NCI-H460 lung and 1.84 µM in the assay on SF-295 CNS. For the same compound, the TGI in the assay with U251 CNS amounted to 4.04 µM; in the assay with COLO 205 colon it was 3.88 µM; in the assay with CAKI-1 renal, 3.31 µM; in the assay on NCI/ADR-RES ovarian, 4.33 µM; in the assay with CCRF-CEM leukemia, 4.62 µM; with 786-0 renal, 3.66 µM. The TGI with RXF 393 renal was 3.37 µM; in the assay on DU-145 prostate, 3.18 µM; with NCI-H460 lung, 3.46 µM; with SF-295 CNS, 3.47 µM.
